Data from ChEMBL document CHEMBL4219129, “Design, synthesis and biological evaluation of spiropyrimidinetriones oxazolidinone derivatives as antibacterial agents” (2018).
In brackets after ≈: the same amount, converted by molar mass.

Columns and labels:
Type in all cases: functional
Enterococcus faecium [1] = assay: Antibacterial activity against vancomycin-resistant Enterococcus faecium R1
Enterococcus faecium [2] = assay: Antibacterial activity against Enterococcus faecium 575
Staphylococcus aureus [3] = assay: Antibacterial activity against PVL positive Staphylococcus aureus
Staphylococcus aureus [4] = assay: Antibacterial activity against Staphylococcus aureus ATCC 29213
Staphylococcus aureus [5] = assay: Antibacterial activity against Staphylococcus aureus FDA 209P
Staphylococcus aureus [6] = assay: Antibacterial activity against methicillin-resistant Staphylococcus aureus 562
Staphylococcus aureus [7] = assay: Antibacterial activity against methicillin-resistant Staphylococcus aureus 1201984
Staphylococcus aureus [8] = assay: Antibacterial activity against methicillin-resistant Staphylococcus aureus DB-00026
Staphylococcus aureus [9] = assay: Antibacterial activity against methicillin-resistant Staphylococcus aureus USA300 BAA-1556
Staphylococcus aureus [10] = assay: Antibacterial activity against Staphylococcus aureus Mu50 ATCC 700699
Staphylococcus aureus [11] = assay: Antibacterial activity against linezolid-resistant Staphylococcus aureus O-128
Staphylococcus aureus [12] = assay: Antibacterial activity against […] Staphylococcus aureus ATCC 13709 SMITH
[13] = test system: Staphylococcus epidermidis; assay: Antibacterial activity against Staphylococcus epidermidis ATCC 12228
[14] = test system: Staphylococcus epidermidis; assay: Antibacterial activity against methicillin-resistant Staphylococcus epidermidis ATCC 35984
[15] = test system: Staphylococcus epidermidis; assay: Antibacterial activity against linezolid-resistant Staphylococcus epidermidis 1117174
[16] = test system: Staphylococcus epidermidis; assay: Antibacterial activity against linezolid-resistant Staphylococcus epidermidis 1089191
Escherichia coli [17] = assay: Antibacterial activity against TolC-deficient Escherichia coli
Escherichia coli [18] = assay: Antibacterial activity against Escherichia coli MG1655; settings: K-12 substr. MG1655
Enterococcus faecalis [19] = assay: Antibacterial activity against Enterococcus faecalis ATCC 51299
Enterococcus faecalis [20] = assay: Antibacterial activity against linezolid-resistant Enterococcus faecalis ATCC 29212
Enterococcus faecium [21] = assay: Antibacterial activity against Enterococcus faecium ATCC 19434
Enterococcus faecium [22] = assay: Antibacterial activity against vancomycin-resistant Enterococcus faecium 6A
Enterococcus faecium [23] = assay: Antibacterial activity against vancomycin-resistant Enterococcus faecium 03080 DS
Enterococcus faecium [24] = assay: Antibacterial activity against Enterococcus faecium ATCC 35667
Enterococcus faecalis [25] = assay: Antibacterial activity against Enterococcus faecalis ATCC 19434
Enterococcus faecalis [26] = assay: Antibacterial activity against Enterococcus faecalis ATCC 29212
Enterococcus faecium [27] = assay: Antibacterial activity against vancomycin-resistant Enterococcus faecium 134
Enterococcus faecium [28] = assay: Antibacterial activity against Enterococcus faecium 45/146
Enterococcus faecium [29] = assay: Antibacterial activity against linezolid-resistant Enterococcus faecium 303
Enterococcus faecium [30] = assay: Antibacterial activity against Enterococcus faecium NLNZ 572
Enterococcus faecium [31] = assay: Antibacterial activity against vancomycin-resistant Enterococcus faecium 31/132
Enterococcus faecium [32] = assay: Antibacterial activity against vancomycin-resistant Enterococcus faecium 32/133

Row | SMILES | MIC (Enterococcus faecium [1]) [µg/mL] | MIC (Enterococcus faecium [2]) [µg/mL] | MIC (Staphylococcus aureus [3]) [µg/mL] | MIC (Staphylococcus aureus [4]) [µg/mL] | MIC (Staphylococcus aureus [5]) [µg/mL] | MIC (Staphylococcus aureus [6]) [µg/mL] | MIC (Staphylococcus aureus [8]) [µg/mL] | MIC (Staphylococcus aureus [9]) [µg/mL] | MIC (Staphylococcus aureus [11]) [µg/mL] | MIC (Staphylococcus aureus [12]) [µg/mL] | MIC [13] [µg/mL] | MIC [14] [µg/mL] | MIC [15] [µg/mL] | MIC [16] [µg/mL] | MIC (Escherichia coli [17]) [µg/mL] | MIC (Escherichia coli [18]) [µg/mL] | MIC (Enterococcus faecalis [19]) [µg/mL] | MIC (Enterococcus faecalis [20]) [µg/mL] | MIC (Enterococcus faecium [21]) [µg/mL] | MIC (Enterococcus faecium [31]) [µg/mL] | further results
1 | CC(=O)NC[C@H]1CN(c2ccc(-c3ccc4c(c3)CC3(C(=O)NC(=O)NC3=O)C3CCCCN43)c(F)c2)C(=O)O1 (stereo not given in full) | 1 (≈ 1.82 µM) | 2 (≈ 3.64 µM) | 4 (≈ 7.28 µM) | 2 (≈ 3.64 µM) | 2 (≈ 3.64 µM) | ≤ 1 | 2 (≈ 3.64 µM) | 2 (≈ 3.64 µM) | 8 (≈ 14.6 µM) | 16 (≈ 29.1 µM) | 2 (≈ 3.64 µM) | ≤ 1 | > 32 | > 32 | 4 (≈ 7.28 µM) | > 32 | 1 (≈ 1.82 µM) | 4 (≈ 7.28 µM) | 2 (≈ 3.64 µM) | 2 (≈ 3.64 µM) | MIC (Staphylococcus aureus [7]): 2 µg/mL (≈ 3.64 µM); MIC (Staphylococcus aureus [10]): ≤ 1 µg/mL; MIC (Enterococcus faecium [22]): 1 µg/mL (≈ 1.82 µM); MIC (Enterococcus faecium [23]): 1 µg/mL (≈ 1.82 µM); MIC (Enterococcus faecium [24]): 1 µg/mL (≈ 1.82 µM); MIC (Enterococcus faecalis [25]): 2 µg/mL (≈ 3.64 µM); MIC (Enterococcus faecalis [26]): 2 µg/mL (≈ 3.64 µM); MIC (Enterococcus faecium [27]): 4 µg/mL (≈ 7.28 µM); MIC (Enterococcus faecium [28]): 2 µg/mL (≈ 3.64 µM); MIC (Enterococcus faecium [29]): 16 µg/mL (≈ 29.1 µM); MIC (Enterococcus faecium [30]): 4 µg/mL (≈ 7.28 µM); MIC (Enterococcus faecium [32]): 4 µg/mL (≈ 7.28 µM)
2 | COC(=O)NC[C@H]1CN(c2ccc(-c3ccc4c(c3)CC3(C(=O)NC(=O)NC3=O)C3CCCN43)c(F)c2)C(=O)O1 (stereo not given in full) | 8 (≈ 14.5 µM) | 16 (≈ 29 µM) | 2 (≈ 3.63 µM) | 2 (≈ 3.63 µM) | 4 (≈ 7.25 µM) | 2 (≈ 3.63 µM) | 4 (≈ 7.25 µM) | 4 (≈ 7.25 µM) | 16 (≈ 29 µM) | > 32 | 2 (≈ 3.63 µM) | 2 (≈ 3.63 µM) | 32 (≈ 58 µM) | 32 (≈ 58 µM) | 4 (≈ 7.25 µM) | > 32 | 8 (≈ 14.5 µM) | 16 (≈ 29 µM) | 16 (≈ 29 µM) | 16 (≈ 29 µM) | MIC (Staphylococcus aureus [7]): 2 µg/mL (≈ 3.63 µM); MIC (Staphylococcus aureus [10]): 2 µg/mL (≈ 3.63 µM); MIC (Enterococcus faecium [22]): 8 µg/mL (≈ 14.5 µM); MIC (Enterococcus faecium [23]): 8 µg/mL (≈ 14.5 µM); MIC (Enterococcus faecium [24]): 8 µg/mL (≈ 14.5 µM); MIC (Enterococcus faecalis [25]): 16 µg/mL (≈ 29 µM); MIC (Enterococcus faecalis [26]): 8 µg/mL (≈ 14.5 µM); MIC (Enterococcus faecium [27]): 16 µg/mL (≈ 29 µM); MIC (Enterococcus faecium [28]): 8 µg/mL (≈ 14.5 µM); MIC (Enterococcus faecium [29]): > 32 µg/mL; MIC (Enterococcus faecium [30]): 32 µg/mL (≈ 58 µM); MIC (Enterococcus faecium [32]): 16 µg/mL (≈ 29 µM)
3 | O=C1NC(=O)C2(Cc3cc(-c4ccc(N5C[C@H](CO)OC5=O)cc4F)ccc3N3CCCCC32)C(=O)N1 (stereo not given in full) | 0.25 (≈ 0.492 µM) | 2 (≈ 3.93 µM) | 2 (≈ 3.93 µM) | 4 (≈ 7.87 µM) | 4 (≈ 7.87 µM) | 2 (≈ 3.93 µM) | 4 (≈ 7.87 µM) | 4 (≈ 7.87 µM) | 16 (≈ 31.5 µM) | 16 (≈ 31.5 µM) | 2 (≈ 3.93 µM) | ≤ 1 | 32 (≈ 62.9 µM) | > 32 | 4 (≈ 7.87 µM) | > 32 | 1 (≈ 1.97 µM) | 2 (≈ 3.93 µM) | 2 (≈ 3.93 µM) | 2 (≈ 3.93 µM) | MIC (Staphylococcus aureus [7]): 2 µg/mL (≈ 3.93 µM); MIC (Staphylococcus aureus [10]): 2 µg/mL (≈ 3.93 µM); MIC (Enterococcus faecium [22]): 1 µg/mL (≈ 1.97 µM); MIC (Enterococcus faecium [23]): 1 µg/mL (≈ 1.97 µM); MIC (Enterococcus faecium [24]): 1 µg/mL (≈ 1.97 µM); MIC (Enterococcus faecalis [25]): 2 µg/mL (≈ 3.93 µM); MIC (Enterococcus faecalis [26]): 2 µg/mL (≈ 3.93 µM); MIC (Enterococcus faecium [27]): 2 µg/mL (≈ 3.93 µM); MIC (Enterococcus faecium [28]): 1 µg/mL (≈ 1.97 µM); MIC (Enterococcus faecium [29]): 8 µg/mL (≈ 15.7 µM); MIC (Enterococcus faecium [30]): 4 µg/mL (≈ 7.87 µM); MIC (Enterococcus faecium [32]): 2 µg/mL (≈ 3.93 µM)
4 | CC(=O)NC[C@H]1CN(c2ccc(-c3ccc4c(c3)CC3(C(=O)NC(=O)NC3=O)C3CCCN43)c(F)c2)C(=O)O1 (stereo not given in full) | 2 (≈ 3.73 µM) | 2 (≈ 3.73 µM) | 2 (≈ 3.73 µM) | 2 (≈ 3.73 µM) | 4 (≈ 7.47 µM) | 2 (≈ 3.73 µM) | 2 (≈ 3.73 µM) | 4 (≈ 7.47 µM) | 16 (≈ 29.9 µM) | 16 (≈ 29.9 µM) | 2 (≈ 3.73 µM) | ≤ 1 | 32 (≈ 59.8 µM) | > 32 | 2 (≈ 3.73 µM) | > 32 | 2 (≈ 3.73 µM) | 4 (≈ 7.47 µM) | 2 (≈ 3.73 µM) | 2 to 4 (≈ 3.73 to 7.47 µM) | MIC (Staphylococcus aureus [7]): 4 µg/mL (≈ 7.47 µM); MIC (Staphylococcus aureus [10]): ≤ 1 µg/mL; MIC (Enterococcus faecium [22]): 1 µg/mL (≈ 1.87 µM); MIC (Enterococcus faecium [23]): 2 µg/mL (≈ 3.73 µM); MIC (Enterococcus faecium [24]): 1 µg/mL (≈ 1.87 µM); MIC (Enterococcus faecalis [25]): 2 µg/mL (≈ 3.73 µM); MIC (Enterococcus faecalis [26]): 2 µg/mL (≈ 3.73 µM); MIC (Enterococcus faecium [27]): 4 µg/mL (≈ 7.47 µM); MIC (Enterococcus faecium [28]): 2 µg/mL (≈ 3.73 µM); MIC (Enterococcus faecium [29]): 16 µg/mL (≈ 29.9 µM); MIC (Enterococcus faecium [30]): 4 µg/mL (≈ 7.47 µM); MIC (Enterococcus faecium [32]): 4 µg/mL (≈ 7.47 µM)
5 | CC(=O)NC[C@H]1CN(c2ccc(N3CCOCC3)c(F)c2)C(=O)O1 [LINEZOLID] | 4 (≈ 11.9 µM) | 2 (≈ 5.93 µM) | 0.5 to 4 (≈ 1.48 to 11.9 µM) | 2 to 4 (≈ 5.93 to 11.9 µM) | 4 to 32 (≈ 11.9 to 94.9 µM) | 2 to 4 (≈ 5.93 to 11.9 µM) | 2 to 4 (≈ 5.93 to 11.9 µM) | 2 to 4 (≈ 5.93 to 11.9 µM) | 2 to 32 (≈ 5.93 to 94.9 µM) | 2 to 32 (≈ 5.93 to 94.9 µM) | 2 to 4 (≈ 5.93 to 11.9 µM) | 2 (≈ 5.93 µM) | > 32 | > 32 | 2 to 8 (≈ 5.93 to 23.7 µM) | > 32 | – | > 32 | 2 to 4 (≈ 5.93 to 11.9 µM) | 2 (≈ 5.93 µM) | MIC (Enterococcus faecium [23]): 2 µg/mL (≈ 5.93 µM); MIC (Enterococcus faecium [24]): 0.5 µg/mL (≈ 1.48 µM); MIC (Enterococcus faecium [27]): 2 µg/mL (≈ 5.93 µM); MIC (Enterococcus faecium [29]): > 32 µg/mL
6 | CN[C@H](CC(C)C)C(=O)N[C@H]1C(=O)N[C@@H](CC(N)=O)C(=O)N[C@H]2C(=O)N[C@H]3C(=O)N[C@H](C(=O)N[C@H](C(=O)O)c4cc(O)cc(O)c4-c4cc3ccc4O)[C@H](O)c3ccc(c(Cl)c3)Oc3cc2cc(c3O[C@@H]2O[C@H](CO)[C@@H](O)[C@H](O)[C@H]2O[C@H]2C[C@](C)(N)[C@H](O)[C@H](C)O2)Oc2ccc(cc2Cl)[C@H]1O [VANCOMYCIN] | – | – | – | – | – | – | – | – | – | – | – | – | – | – | – | – | > 32 | 2 (≈ 1.38 µM) | – | > 32 | MIC (Enterococcus faecalis [26]): 2 µg/mL (≈ 1.38 µM)
